The record followed here is patent EP2951180B1, “2,6,7,8 SUBSTITUTED PURINES AS HDM2 INHIBITORS” (Merck Sharp & Dohme Corp., priority 2013, dated 2014).

In this assay the target is T1, HDM2 (Homo sapiens, UniProt Q00987).
T1 construct: Thioredoxin (N); made in house; host or cells: E. coli strain BL21(DE3)Rosetta
Description: HDM2 FRET assay (inhibition of binding of FITC labeled p53-pocket peptide to HDM2). The note with it: read-out: FRET IC50. Put shortly:
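Displacement of FITC-p53 peptide (3 nM) from His-tagged HDM2 (0.5 nM) is measured by Tb-to-fluorescein FRET in PBS, 0.01% BSA, 0.01% Tween-20. IC50 values derive from 10-point curves.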

Where [1] appears, read: 0.5 nM HDM2 (residues 17 to 125), 3nM peptide, two hour incubation at room temperature.

As a reminder, the IC50 is the midpoint of a concentration-inhibition curve.

The structures appear in SMILES notation. Where two headings read alike, the source gives them in different places.

T1 sequence (Q00987 17-125): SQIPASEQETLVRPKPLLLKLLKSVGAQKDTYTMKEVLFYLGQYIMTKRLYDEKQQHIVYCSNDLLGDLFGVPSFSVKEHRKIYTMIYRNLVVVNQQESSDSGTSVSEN

Regarding `C[C@@H](Nc1nc(C(=O)O)nc2nc(CN(C)Cc3ccccc3)n(Cc3ccc(C(F)(F)F)cc3)c12)C1CCC1` [Example 10.13, (R)-8-((benzyl(methyl)amino)methyl)-6-((1-cyclobutylethyl)amino)-7-(4-(trifluoromethyl)benzyl)-7H-purine-2-carboxylic acid], the IC50 (Table 10) worked out at 47.7 nM.
Consider `C[C@](CO)(Nc1nc2nc(-c3noc(=O)[nH]3)nc(-c3cccc(Cl)c3)c2n1C[C@H]1CC[C@H](C)CC1)c1ccccc1` [Example 16.5, 3-(6-(3-chlorophenyl)-8-(((S)-1-hydroxy-2-phenylpropan-2-yl)amino)-7-(((trans)-4-methylcyclohexyl)methyl)-7H-purin-2-yl)-1,2,4-oxadiazol-5(4H)-one], for which the IC50 under setting [1] was 1.59 nM.
For `C[C@@H]1COCCN1c1nc2nc(C(=O)O)nc(N[C@H](C)C3CCC3)c2n1Cc1ccc(C(F)(F)F)cc1` [Example 9.35], under “Table 9”, the IC50 turned out to be 7.17 nM.
Consider `C[C@@H](Nc1nc(N2CCC[C@H]2C(=O)O)nc2nc(N3CCOC[C@H]3c3ccccc3)n(C[C@H]3CC[C@H](C)CC3)c12)C1CCC1` [Example 13.2, 1-(6-{[(1R)-1-cyclobutylethyl]amino}-7-[(trans-4-methylcyclohexyl)methyl]-8-[(3R)-3-phenylmorpholin-4-yl]-7H-purin-2-yl)-L-proline], for which the IC50 under setting [1] came to 987 nM.
On the same count and under the same terms, under `C[C@@H]1CN(C)C(=O)CN1c1nc2nc(-c3noc(=O)[nH]3)nc(-c3cccc(Cl)c3)c2n1C[C@H]1CC[C@H](C)CC1` [Example 16.68, (5R)-4-[6-(3-chlorophenyl)-7-[(trans-4-methylcyclohexyl)methyl]-2-(5-oxo-4,5-dihydro-1,2,4-oxadiazol-3-yl)-7H-purin-8-yl]-1,5-dimethylpiperazin-2-one] stands 11.5 nM.
On the same count and under the same terms, as for `C[C@H]1CC[C@H](Cn2c(N3CCOCC3)nc3nc(-c4noc(=O)[nH]4)nc(-c4cccc(Cl)c4)c32)CC1` [Example 16.1, 3-(6-(3-chlorophenyl)-7-(((trans)-4-methylcyclohexyl)methyl)-8-morpholino-7H-purin-2-yl)-1,2,4-oxadiazol-5(4H)-one], the figure is 71.7 nM; as for `C[C@@H]1COC[C@@H](C)N1c1nc2nc(-c3noc(=O)[nH]3)nc(-c3cccc(Cl)c3)c2n1C[C@H]1CC[C@H](C)CC1` [Example 16.60, 3-{6-(3-chlorophenyl)-8-[(3R,5R)-3,5-dimethylmorpholin-4-yl]-7-[(trans-4-methylcyclohexyl)methyl]-7H-purin-2-yl}-1,2,4-oxadiazol-5(4H)-one], 2.23 nM.
`Cc1cccc(-c2nc3nc(C(=O)O)nc(N4CCCCC4C4CCC4)c3n2Cc2ccc(C(F)(F)F)cc2)c1` (centres unmarked) [Example 6.95, 6-(2-cyclobutylpiperidin-1-yl)-8-(3-methylphenyl)-7-[4-(trifluoromethyl)benzyl]-7H-purine-2-carboxylic acid]: the IC50 (Table 6) was determined as 271 nM.
For `C[C@H]1CC[C@H](Cn2c(N3CCOCC34CCC4)nc3nc(-c4noc(=O)[nH]4)nc(-c4cccc(Cl)c4)c32)CC1` [Example 16.80, 3-[6-(3-chlorophenyl)-7-[(trans-4-methylcyclohexyl)methyl]-8-(8-oxa-5-azaspiro[3.5]non-5-yl)-7H-purin-2-yl]-1,2,4-oxadiazol-5(4H)-one], under setting [1], the 50% inhibitory concentration (IC50) was 8.7 nM.
Consider `C[C@@H]1[C@@H](C)OCCN1c1nc2nc(-c3n[nH]c(=O)o3)nc(-c3cncc(Cl)c3)c2n1C[C@H]1CC[C@H](C)CC1` [Example 16.140, 5-{6-(5-chloropyridin-3-yl)-8-[(2R,3R)-2,3-dimethylmorpholin-4-yl]-7-[(trans-4-methylcyclohexyl)methyl]-7H-purin-2-yl}-1,3,4-oxadiazol-2(3H)-one], for which the IC50 under setting [1] worked out at 9.45 nM.
Turning to `CC(C)CN(C)c1nc2nc(-c3noc(=O)[nH]3)nc(N[C@H](C)C3CCC3)c2n1C[C@H]1CC[C@H](C)CC1` [Example 11.48, 3-(6-{[(1R)-1-cyclobutylethyl]amino}-7-[(trans-4-methylcyclohexyl)methyl]-8-[methyl(2-methylpropyl)amino] -7H-purin-2-yl)-1,2,4-oxadiazol-5(4H)-one], for the setting “Table 11”, the IC50 is 6.71 nM.
Turning to `C[C@H](Nc1nc2nc(C(=O)O)nc(N[C@H](C)C3CCC3)c2n1Cc1ccc(C(F)(F)F)cc1)c1ccccc1` [Example 9.16, 6-{[(1R)-1-cyclobutylethyl]amino}-8-{[(1S)-1-phenylethyl]amino}-7-[4-(trifluoromethyl)benzyl]-7H-purine-2-carboxylic acid], the IC50 (Table 9) is 1.91 nM.
As for `CC(C)c1ccnc(-c2nc3nc(C(=O)O)nc(N[C@H](C)C4CCC4)c3n2C[C@H]2CC[C@H](C)CC2)c1` [Example 15.1, 6-(((R)-1-cyclobutylethyl)amino)-8-(4-isopropylpyridin-2-yl)-7-((trans-4-methylcyclohexyl)methyl)-7H-purine-2-carboxylic acid], the IC50 under setting [1] is 1.3 nM.
In the case of `C[C@@H](Nc1nc([S+](C)[O-])nc2nc(N3CCOC[C@H]3c3ccccc3)n(C[C@H]3CC[C@H](C)CC3)c12)C1CCC1` (single isomer, unassigned) [Example 14.3], the IC50 under setting [1] came to 57.4 nM.
As to `Cc1cccc(-c2nc3nc(C(=O)O)nc(N[C@H](C)C4CCCCC4)c3n2Cc2ccc(Cl)cc2)c1` [Example 6.4, 7-(4-chlorobenzyl)-6-{[(1R)-1-cyclohexylethyl]amino}-8-(3-methylphenyl)-7H-purine-2-carboxylic acid], the IC50 (Table 6) was determined as 1030 nM.
Regarding `CC1CCCN(c2nc3nc(C(=O)O)nc(N[C@H](C)C4CCC4)c3n2C[C@H]2CC[C@H](C)CC2)C1c1ccccc1` (stereo partly drawn) [Example 11.6, 6-(((R)-1-cyclobutylethyl)amino)-8-(3-methyl-2-phenylpiperidin-1-yl)-7-((trans-4-methylcyclohexyl)methyl)-7H-purine-2-carboxylic acid], the IC50 (Table 11) was 1.82 nM.
In the case of `C[C@@H](Nc1nc(-c2noc(=O)[nH]2)nc2nc(N3CCCC3C[S+](C)[O-])n(C[C@H]3CC[C@H](C)CC3)c12)C1CCC1` (single isomer, unassigned) [Example 11.155], under “Table 11”, the IC50 amounted to 165 nM.
Regarding `CC(C)C[C@@H]1CCCCN1c1nc2nc(-c3noc(=O)[nH]3)nc(N[C@H](C)C3CCC3)c2n1C[C@H]1CC[C@H](C)CC1` [Example 11.84, 3-(6-{[(1R)-1-cyclobutylethyl]amino}-7-[(trans-4-methylcyclohexyl)methyl]-8-[(2S)-2-(2-methylpropyl)piperidin-1-yl]-7H-purin-2-yl)-1,2,4-oxadiazol-5(4H)-one], the 50% inhibitory concentration (IC50) (Table 11) came out at 3.07 nM.
Same read-out and setting: as for `C[C@@H](Nc1nc(-c2noc(=O)[nH]2)nc2nc(N3CCOC[C@@H]3C)n(C[C@H]3CC[C@H](C)CC3)c12)C1CCC1` [Example 11.66, 3-(6-{[(1R)-1-cyclobutylethyl]amino}-7-[(trans-4-methylcyclohexyl)methyl]-8-[(3S)-3-methylmorpholin-4-yl]-7H-purin-2-yl)-1,2,4-oxadiazol-5(4H)-one], the figure is 5.8 nM.
For the molecule `C[C@H]1CC[C@H](Cn2c(N3CCO[C@@H]4CCC[C@H]43)nc3nc(-c4n[nH]c(=O)o4)nc(-c4cccc(Cl)c4)c32)CC1` [Example 16.84, 5-{6-(3-chlorophenyl)-8-[(4aR,7aR)-hexahydrocyclopenta [b][1,4]oxazin-4(4aH)-yl]-7-[(trans-4-methylcyclohexyl)methyl]-7H-purin-2-yl}-1,3,4-oxadiazol-2(3H)-one], the IC50 under setting [1] is 2.47 nM.
Same read-out and setting: under `C[C@@H](Nc1nc(-c2nnc[nH]2)nc2nc(N3CCOC[C@H]3c3ccccc3)n(C[C@H]3CC[C@H](C)CC3)c12)C1CCC1` [Example 12.16, N-[(1R)-1-cyclobutylethyl]-7-[(trans-4-methylcyclohexyl)methyl]-8-[(3R)-3-phenylmorpholin-4-yl]-2-(4H-1,2,4-triazol-3-yl)-7H-purin-6-amine] stands 10.8 nM.
As for `CC(Nc1nc2nc(-c3noc(=O)[nH]3)nc(N[C@H](C)C3CCC3)c2n1C[C@H]1CC[C@H](C)CC1)c1ccno1` (stereo partly drawn) [Example 11.87, 3-(6-{[(1R)-1-cyclobutylethyl]amino}-8-[(1-isoxazol-5-ylethyl)amino]-7-[(trans-4-methylcyclohexyl)methyl]-7H-purin-2-yl)-1,2,4-oxadiazol-5(2H)-one], the IC50 (Table 11) was found to be 105 nM.
On to `C[C@@H](Nc1nc(C(=O)O)nc2nc(N3CCOC[C@@H]3C)n(Cc3ccc(Cl)cc3)c12)C1CC1` [Example 9.28, 7-(4-chlorobenzyl)-6-{[(1R)-1-cyclopropylethyl]amino}-8-[(3S)-3-methylmorpholin-4-yl]-7H-purine-2-carboxylic acid], for which the IC50 (Table 9) was 143 nM.
Take `C[C@@H](Nc1nc(-c2noc(=O)[nH]2)nc2nc(N(C)[C@@H]3CCCC[C@@H]3O)n(C[C@H]3CC[C@H](C)CC3)c12)C1CCC1` (stereo in doubt) [Example 11.132, 3-(6-{[(1R)-1-cyclobutylethyl]amino}-8-{[(1R,2S)-2-hydroxycyclohexyl](methyl)amino}-7-[(trans-4-methylcyclohexyl)methyl]-7H-purin-2-yl)-1,2,4-oxadiazol-5(4H)-one]: the IC50 (Table 11) was 25.6 nM.
As for `C[C@@H]1CN(C(=O)C(C)(C)C)CCN1c1nc2nc(-c3noc(=O)[nH]3)nc(N[C@H](C)C3CCC3)c2n1C[C@H]1CC[C@H](C)CC1` [Example 17.15, 3-(6-{[(1R)-1-cyclobutylethyl]amino}-8-[(2R)-4-(2,2-dimethylpropanoyl)-2-methylpiperazin-1-yl]-7-[(trans-4-methylcyclohexyl)methyl]-7H-purin-2-yl)-1,2,4-oxadiazol-5(4H)-one], the IC50 (Table 17.2) worked out at 4.3 nM.
On to `C[C@@H](Nc1nc(-c2noc(=O)[nH]2)nc2nc(C3CCCC3)n(C[C@H]3CC[C@H](C)CC3)c12)C1CCC1` [Example 21.34, 3-(6-{[(1R)-1-cyclobutylethyl]amino}-8-cyclopentyl-7-[(trans-4-methylcyclohexyl)methyl]-7H-purin-2-yl)-1,2,4-oxadiazol-5(4H)-one], for which, for the setting “Table 21”, the IC50 was determined as 7.76 nM.
